From paper PMC10756276, “Highly specific σ2R/TMEM97 ligand FEM-1689 alleviates neuropathic pain and inhibits the integrated stress response” (Proceedings of the National Academy of Sciences of the …, 2023)
Entries after “also recorded” stand apart in the source; their conditions may differ.

Tests used:
[1] = tested on: mechanical hypersensitivity; parameters: method as in PMID 30157134, PMID 32677089; settings: cited from earlier work
[2] = tested on: p-ACC in mouse DRG neurons; assay: p-ACC immunocytochemistry in cultured DRG neurons; type: cell-based; settings: 16 h; FEM-1689 10, 100, 1,000 nM; A769662 100 µM; wild-type and TMEM97KO neurons
Protocol: (§1) The ICC protocol was based on a previously published protocol ([76]). […] Cells were blocked with 10% normal goat serum (NGS) in PBS-triton X (0.1%). […] Antibodies were incubated at 4 °C overnight. […] It was washed with PBS twice. […] Images were analyzed using Olympus CellSens. […] Number of cells analyzed are detailed in SI Appendix, Tables S3 and S4. […]
(§2) T his BSA gradient containing the cells was centrifuged at 900g for 5 min at room temperatur e.
(§3) The pellet containing the cells was resuspended in Br ainPhys media (STEMCell #05790) containing 2% […]
(§4) 1% Gluta Max (Gibco # 350 5 0061). Hu man DRG ne uron s were plated a nd grown o n glass coverslips coate d with po ly-D-lysine (Sigma #P7405). C ultured D RG neurons were plated for 24 hours before being treated.
(§5) Methylglyoxal (Sigma- Aldrich #M0252) and F EM- 1689 were serially diluted in media.
(§6) Mouse samples - DRG cultures […]
(§7) anesthesia and decapitated. […]
(§8) section above with minor differences.
(§9) Mouse DRG neurons were grown in
(§10) SAS-0132 and DKR-1677 were […]
(§11) dissolved in 100% DMSO to a final concentr ation of 200mM and stored at - 20 °C. and DKR-1677 were serially diluted in media. Untreated media was completely replaced with media containing each compound. […]
(§12) Slides were […]
incubated with 1:2 diluted hydrogen peroxide in distilled water for 10 min at r oom temper ature and washed twice in distilled water. […]

retinal ganglion cells = tested on: retinal ganglion cells; parameters: method as in PMID 36456686; settings: ischemia/reperfusion injury; cited from earlier work
[3] = tested on: models of traumatic brain injury (TBI); settings: blast injury and controlled cortical impact models; cited from earlier work
[4] = tested on: p-eIF2α in mouse DRG neurons; assay: p-eIF2α immunocytochemistry in cultured DRG neurons; type: cell-based; settings: 16 h; for phosphorylation of eIF2α: wild-type mouse DRG neurons, 10, 30, 100, 300 nM; for p-eIF2α levels: ISRIB 200 nM
Protocol: as §1, §2, §3, §4, §5, §6, §7, §8, §9, §10, §11, §12
(§13) incubated with 1:2 diluted hydrogen peroxide in distilled water for 10 min at r oom temper ature and washed twice in distilled water. The protease IV was applied to each section and incubated for 5 min at room temperature. Slides were w ashed twice in 1X PBS and RNA scope was performed immediately. A mixture of probes - Tmem97, Scn10a, and Fabp7 – was hybridized for 2 hours at 40 °C in a humidity control tray

[5] = tested on: MGO-induced mechanical hypersensitivity, wild-type mice; assay: Methylglyoxal-induced mechanical hypersensitivity; type: in vivo, mouse
neurite outgrowth = tested on: neurite outgrowth; parameters: method as in PMID 31836389; settings: cited from earlier work
BiP in mouse DRG neurons = assay: BiP immunocytochemistry in cultured DRG neurons; type: cell-based; settings: ISRIB 200 nM
Protocol: as §1, §2, §3, §4, §5, §6, §7, §8, §9, §10, §11, §12, §13

[6] = tested on: p-eIF2α in human DRG neurons; assay: p-eIF2α immunocytochemistry in cultured human DRG neurons; type: cell-based; settings: MGO 1 µM
[7] = tested on: animal models of age-related neurodegeneration; parameters: method as in PMID 27926996, PMID 29426225; settings: cited from earlier work
[8] = tested on: mouse model of neuropathic pain; parameters: method as in PMID 28644012, PMID 27926996; settings: cited from earlier work; for mechanical hypersensitivity / antinociceptive effect: mouse neuropathic pain model
[9] = tested on: neuronal toxicity induced by mutant huntingtin protein; parameters: method as in PMID 36108101; settings: model of Huntington's disease; cited from earlier work
BZP Rat Brain = assay: PDSP competitive binding assay; settings: dose response curve

O=C(O)CCCc1ccccc1 [4-PBA]
duration of efficacy on mechanical hypersensitivity in vivo [1]: hours

N#Cc1c(O)c2c(-c3ccc(-c4ccccc4O)cc3)csc2[nH]c1=O [A769662, reference compound]
p-ACC levels [2]: elevate; also recorded: increased p-ACC levels in both wild-type and TMEM97KO neurons

CCCN1CCN(c2ccc3c(c2)C2CC3CCN2C(=O)OCc2ccccc2)CC1 (stereo not shown) [DKR-1677, reference compound]
protection of retinal ganglion cells (retinal ganglion cells): protects retinal ganglion cells from ischemia/reperfusion injury
protection in traumatic brain injury [3]: protective in two different models of traumatic brain injury
phosphorylation of eIF2α [4]: promote the phosphorylation of eIF2α; also recorded: stimulate the ISR by promoting the phosphorylation of eIF2α

O=C(COc1ccc(Cl)cc1)NC1CCC(NC(=O)COc2ccc(Cl)cc2)CC1 (stereo not shown) [ISRIB, reference compound]
time after drug administration at which antiallodynic effects were observed ([5]; ISRIB 2.5 mg/kg IP): 3 h
MGO-induced mechanical hypersensitivity ([5]; MGO 20 ng intraplantar, FEM-1689 20 mg/kg IV or ISRIB 2.5 mg/kg IP 24 h after MGO): transient; also recorded: reverted to a hypersensitive state 24 h after injection
duration of efficacy on mechanical hypersensitivity in vivo [1]: hours
neurite outgrowth (neurite outgrowth): enhances neurite outgrowth
BiP levels (BiP in mouse DRG neurons; TMEM97KO mouse DRG neurons): reduce BiP levels
BiP levels (BiP in mouse DRG neurons; wild-type mouse DRG neurons): reduce BiP levels
p-eIF2α levels ([4]; TMEM97KO mouse DRG neurons): failed to change p-eIF2α immunoreactivity
p-eIF2α levels ([4]; wild-type mouse DRG neurons): reduced p-eIF2α levels in wild-type neurons

CC(=O)C=O [MGO, Methylglyoxal, reference compound]
p-eIF2α levels [6]: increased p-eIF2α levels

CN1CCN(c2ccc3c(c2)C2CC3CCN2C(=O)OCc2ccccc2)CC1 (stereo not shown) [SAS-0132]
neuroprotection and cognitive performance [7]: neuroprotective and improves cognitive performance
phosphorylation of eIF2α [4]: promote the phosphorylation of eIF2α; also recorded: stimulate the ISR by promoting the phosphorylation of eIF2α
effect on the antinociceptive effects of UKH-1114 [8]: inhibit the antinociceptive effects of UKH-1114; also recorded: blocks the antinociceptive activity of UKH-1114
mechanical hypersensitivity / antinociceptive effect [8]: has no antinociceptive effect on its own

OCCCN1CCCC2CC1c1cc(-c3ccc(C(F)(F)F)cc3)ccc12 (stereo not shown) [UKH-1114]
neuronal toxicity [9]: reduces neuronal toxicity
mechanical hypersensitivity / antinociceptive effect [8]: alleviates mechanical hypersensitivity following nerve injury

O=C1CN=C(c2ccccc2Cl)c2cc([N+](=O)[O-])ccc2N1 [clonazepam, reference compound]
LogKi, BZP Rat Brain (BZP Rat Brain; given as LogKi with negative sign): -8.89
Ki (BZP Rat Brain; read-out: Ki, BZP Rat Brain): 1.29 nM
